Reference: the NIST ThermoML archive (doi:10.1021/je900715y)
Numbers after ± are expanded uncertainties.

Experiment: xn = mol fraction of the nth substance listed
Details: 101.3 kPa, Liquid

`CCC(C)O` (stereo not given) [butan-2-ol] + CCCCCCC gave a mass density (288.15 K, x1 = 0.05) of 691.106 ± 0.63 kg/m3, a mass density (288.15 K, x1 = 0.1) of 694.641 ± 0.63 kg/m3 and a mass density (288.15 K, x1 = 0.15) of 698.486 ± 0.63 kg/m3. The mass density (288.15 K, x1 = 0.2003) was 702.573 ± 0.63 kg/m3, the mass density (288.15 K, x1 = 0.3016) was 711.547 ± 0.62 kg/m3 and the mass density (288.15 K, x1 = 0.4004) was 721.346 ± 0.61 kg/m3. For the same molecule, the mass density (288.15 K, x1 = 0.5002) was 732.429 ± 0.6 kg/m3, the mass density (288.15 K, x1 = 0.5999) was 744.751 ± 0.59 kg/m3 and the mass density (288.15 K, x1 = 0.65) was 751.547 ± 0.59 kg/m3. For the same molecule, the mass density (288.15 K, x1 = 0.72) was 761.59 ± 0.58 kg/m3, the mass density (288.15 K, x1 = 0.8) was 774.103 ± 0.57 kg/m3 and the mass density (288.15 K, x1 = 0.8499) was 782.463 ± 0.57 kg/m3. It also gave a mass density (288.15 K, x1 = 0.8995) of 791.187 ± 0.56 kg/m3, a mass density (288.15 K, x1 = 0.9501) of 800.691 ± 0.56 kg/m3 and a mass density (288.15 K, x1 = 1) of 810.689 ± 0.55 kg/m3. For the same molecule, the mass density (293.15 K, x1 = 0.05) was 686.813 ± 0.64 kg/m3, the mass density (293.15 K, x1 = 0.1) was 690.325 ± 0.64 kg/m3 and the mass density (293.15 K, x1 = 0.15) was 694.158 ± 0.64 kg/m3. The mass density (293.15 K, x1 = 0.2003) was 698.236 ± 0.63 kg/m3, the mass density (293.15 K, x1 = 0.3016) was 707.194 ± 0.62 kg/m3 and the mass density (293.15 K, x1 = 0.4004) was 716.97 ± 0.62 kg/m3. It also gave a mass density (293.15 K, x1 = 0.5002) of 728.035 ± 0.61 kg/m3, a mass density (293.15 K, x1 = 0.5999) of 740.362 ± 0.6 kg/m3 and a mass density (293.15 K, x1 = 0.65) of 747.174 ± 0.6 kg/m3. For the same molecule, the mass density (293.15 K, x1 = 0.72) was 757.255 ± 0.59 kg/m3, the mass density (293.15 K, x1 = 0.8) was 769.827 ± 0.58 kg/m3 and the mass density (293.15 K, x1 = 0.8499) was 778.238 ± 0.57 kg/m3. For the same molecule, the mass density (293.15 K, x1 = 0.8995) was 787.015 ± 0.57 kg/m3, the mass density (293.15 K, x1 = 0.9501) was 796.583 ± 0.56 kg/m3 and the mass density (293.15 K, x1 = 1) was 806.646 ± 0.56 kg/m3. For the same molecule, the mass density (298.15 K, x1 = 0.05) was 682.487 ± 0.65 kg/m3, the mass density (298.15 K, x1 = 0.1) was 685.97 ± 0.65 kg/m3 and the mass density (298.15 K, x1 = 0.15) was 689.789 ± 0.64 kg/m3. For the same molecule, the mass density (298.15 K, x1 = 0.2003) was 693.854 ± 0.64 kg/m3, the mass density (298.15 K, x1 = 0.3016) was 702.791 ± 0.63 kg/m3 and the mass density (298.15 K, x1 = 0.4004) was 712.546 ± 0.62 kg/m3. For the same molecule, the mass density (298.15 K, x1 = 0.5002) was 723.591 ± 0.62 kg/m3, the mass density (298.15 K, x1 = 0.5999) was 735.917 ± 0.61 kg/m3 and the mass density (298.15 K, x1 = 0.65) was 742.739 ± 0.6 kg/m3. The mass density (298.15 K, x1 = 0.72) was 752.851 ± 0.59 kg/m3, the mass density (298.15 K, x1 = 0.8) was 765.479 ± 0.59 kg/m3 and the mass density (298.15 K, x1 = 0.8499) was 773.935 ± 0.58 kg/m3. For the same molecule, the mass density (298.15 K, x1 = 0.8995) was 782.767 ± 0.57 kg/m3, the mass density (298.15 K, x1 = 0.9501) was 792.396 ± 0.57 kg/m3 and the mass density (298.15 K, x1 = 1) was 802.528 ± 0.56 kg/m3. It also gave a mass density (303.15 K, x1 = 0.05) of 678.127 ± 0.65 kg/m3, a mass density (303.15 K, x1 = 0.1) of 681.576 ± 0.65 kg/m3 and a mass density (303.15 K, x1 = 0.15) of 685.376 ± 0.65 kg/m3. It also gave a mass density (303.15 K, x1 = 0.2003) of 689.427 ± 0.65 kg/m3, a mass density (303.15 K, x1 = 0.3016) of 698.341 ± 0.64 kg/m3 and a mass density (303.15 K, x1 = 0.4004) of 708.073 ± 0.63 kg/m3. The mass density (303.15 K, x1 = 0.5002) was 719.095 ± 0.62 kg/m3, the mass density (303.15 K, x1 = 0.5999) was 731.411 ± 0.61 kg/m3 and the mass density (303.15 K, x1 = 0.65) was 738.239 ± 0.61 kg/m3. For the same molecule, the mass density (303.15 K, x1 = 0.72) was 748.373 ± 0.6 kg/m3, the mass density (303.15 K, x1 = 0.8) was 761.053 ± 0.59 kg/m3 and the mass density (303.15 K, x1 = 0.8499) was 769.552 ± 0.59 kg/m3. It also gave a mass density (303.15 K, x1 = 0.8995) of 778.434 ± 0.58 kg/m3, a mass density (303.15 K, x1 = 0.9501) of 788.125 ± 0.57 kg/m3 and a mass density (303.15 K, x1 = 1) of 798.326 ± 0.57 kg/m3. For the same molecule, the mass density (308.15 K, x1 = 0.05) was 673.731 ± 0.66 kg/m3, the mass density (308.15 K, x1 = 0.1) was 677.138 ± 0.66 kg/m3 and the mass density (308.15 K, x1 = 0.15) was 680.913 ± 0.66 kg/m3. It also gave a mass density (308.15 K, x1 = 0.2003) of 684.946 ± 0.65 kg/m3, a mass density (308.15 K, x1 = 0.3016) of 693.835 ± 0.65 kg/m3 and a mass density (308.15 K, x1 = 0.4004) of 703.542 ± 0.64 kg/m3. The mass density (308.15 K, x1 = 0.5002) was 714.54 ± 0.63 kg/m3, the mass density (308.15 K, x1 = 0.5999) was 726.839 ± 0.62 kg/m3 and the mass density (308.15 K, x1 = 0.65) was 733.67 ± 0.61 kg/m3. The mass density (308.15 K, x1 = 0.72) was 743.821 ± 0.61 kg/m3, the mass density (308.15 K, x1 = 0.8) was 756.541 ± 0.6 kg/m3 and the mass density (308.15 K, x1 = 0.8499) was 765.08 ± 0.59 kg/m3. The mass density (308.15 K, x1 = 0.8995) was 774.01 ± 0.59 kg/m3, the mass density (308.15 K, x1 = 0.9501) was 783.761 ± 0.58 kg/m3 and the mass density (308.15 K, x1 = 1) was 794.03 ± 0.57 kg/m3. The mass density (313.15 K, x1 = 0.05) was 669.301 ± 0.67 kg/m3, the mass density (313.15 K, x1 = 0.1) was 672.659 ± 0.66 kg/m3 and the mass density (313.15 K, x1 = 0.15) was 676.402 ± 0.66 kg/m3. It also gave a mass density (313.15 K, x1 = 0.2003) of 680.415 ± 0.66 kg/m3, a mass density (313.15 K, x1 = 0.3016) of 689.275 ± 0.65 kg/m3 and a mass density (313.15 K, x1 = 0.4004) of 698.952 ± 0.64 kg/m3. The mass density (313.15 K, x1 = 0.5002) was 709.925 ± 0.64 kg/m3, the mass density (313.15 K, x1 = 0.5999) was 722.202 ± 0.63 kg/m3 and the mass density (313.15 K, x1 = 0.65) was 729.03 ± 0.62 kg/m3. The mass density (313.15 K, x1 = 0.72) was 739.19 ± 0.61 kg/m3, the mass density (313.15 K, x1 = 0.8) was 751.943 ± 0.6 kg/m3 and the mass density (313.15 K, x1 = 0.8499) was 760.519 ± 0.6 kg/m3. For the same molecule, the mass density (313.15 K, x1 = 0.8995) was 769.495 ± 0.59 kg/m3, the mass density (313.15 K, x1 = 0.9501) was 779.299 ± 0.59 kg/m3 and the mass density (313.15 K, x1 = 1) was 789.632 ± 0.58 kg/m3. The mass density (318.15 K, x1 = 0.05) was 664.835 ± 0.67 kg/m3, the mass density (318.15 K, x1 = 0.1) was 668.131 ± 0.67 kg/m3 and the mass density (318.15 K, x1 = 0.15) was 671.84 ± 0.67 kg/m3. For the same molecule, the mass density (318.15 K, x1 = 0.2003) was 675.83 ± 0.67 kg/m3, the mass density (318.15 K, x1 = 0.3016) was 684.65 ± 0.66 kg/m3 and the mass density (318.15 K, x1 = 0.4004) was 694.299 ± 0.65 kg/m3. It also gave a mass density (318.15 K, x1 = 0.5002) of 705.243 ± 0.64 kg/m3, a mass density (318.15 K, x1 = 0.5999) of 717.496 ± 0.63 kg/m3 and a mass density (318.15 K, x1 = 0.65) of 724.317 ± 0.63 kg/m3. The mass density (318.15 K, x1 = 0.72) was 734.479 ± 0.62 kg/m3, the mass density (318.15 K, x1 = 0.8) was 747.257 ± 0.61 kg/m3 and the mass density (318.15 K, x1 = 0.8499) was 755.863 ± 0.6 kg/m3. For the same molecule, the mass density (318.15 K, x1 = 0.8995) was 764.879 ± 0.6 kg/m3, the mass density (318.15 K, x1 = 0.9501) was 774.738 ± 0.59 kg/m3 and the mass density (318.15 K, x1 = 1) was 785.117 ± 0.58 kg/m3. The mass density (323.15 K, x1 = 0.05) was 660.336 ± 0.68 kg/m3, the mass density (323.15 K, x1 = 0.1) was 663.562 ± 0.68 kg/m3 and the mass density (323.15 K, x1 = 0.15) was 667.23 ± 0.68 kg/m3. It also gave a mass density (323.15 K, x1 = 0.2003) of 671.188 ± 0.67 kg/m3, a mass density (323.15 K, x1 = 0.3016) of 679.969 ± 0.67 kg/m3 and a mass density (323.15 K, x1 = 0.4004) of 689.584 ± 0.66 kg/m3. It also gave a mass density (323.15 K, x1 = 0.5002) of 700.502 ± 0.65 kg/m3, a mass density (323.15 K, x1 = 0.5999) of 712.72 ± 0.64 kg/m3 and a mass density (323.15 K, x1 = 0.65) of 719.533 ± 0.63 kg/m3. For the same molecule, the mass density (323.15 K, x1 = 0.72) was 729.69 ± 0.63 kg/m3, the mass density (323.15 K, x1 = 0.8) was 742.488 ± 0.62 kg/m3 and the mass density (323.15 K, x1 = 0.8499) was 751.116 ± 0.61 kg/m3. It also gave a mass density (323.15 K, x1 = 0.8995) of 760.166 ± 0.6 kg/m3, a mass density (323.15 K, x1 = 0.9501) of 770.073 ± 0.6 kg/m3 and a mass density (323.15 K, x1 = 1) of 780.515 ± 0.59 kg/m3.
